Source: US11059818B2, “Triazolopyridine inhibitors of myeloperoxidase” (BRISTOL-MYERS SQUIBB COMPANY, priority 2016, dated 2021)

Key:
myeloperoxidase [1] = molecular target: T1, myeloperoxidase (Homo sapiens (Human), UniProt P05164); experiment: MPO Peroxidation Assay (Amplex Red Assay); format: biochemical; settings: potency range class
Protocol: MPO Peroxidation Assay (Amplex Red Assay)
MPO peroxidation activity was measured in 100 mM KPi (pH 7.4) by utilizing the non-fluorescent reagent Amplex Red (Invitrogen Cat. #A12222) which can be oxidized to the highly fluorescent resorufin. Amplex Red is oxidized by the peroxidase action of MPO to resorufin. Reactions were carried out in 50 μL total volume by adding a 25 μL mixture of 200 pM myeloperoxidase and 40 nM H2O2(Sigma #349887) to 100 nL inhibitor in 100% DMSO in a 384 well Perkin Elmer Optiplate. Enzyme and compound were preincubated for ten minutes at rt.
After the ten minute preincubation, 25 μL of an Amplex Red mixture containing 200 μM Amplex Red and 10 mM H2O2 was added to the plate. Kinetic determinations were carried out immediately on a Perkin Elmer Envision (15 minute kinetic read, Ex: 535 nm, Em: 590 nm).
IC50 values were calculated by determining the slope of the linear portion of the kinetic trace (180-540 secs), and using that calculated slope to determine % inhibition occurring at each concentration of inhibitor using the following equation:
(§1) [formula] where A=minimal Y value (activity level of inhibited sample), B=maximal Y value (activity level of uninhibited sample), C=Log IC50, D=Hill Slope, x=concentration of inhibitor. MPO Chlorination Assay (APF Assay)

myeloperoxidase [2] = molecular target: T1, myeloperoxidase; experiment: MPO Chlorination Assay (APF Assay); format: biochemical; settings: potency range class
Protocol: as §1
MPO chlorination activity was measured in 100 mM KPi (pH 7.4) by utilizing the non-fluorescent reagent Aminophenyl fluorescein (APF, Invitrogen Cat. #A36003). APF is cleaved by (—OCl) to yield the fluorescent compound fluorescein. Reactions were carried out in 50 μL total volume by adding a 25 μL mixture of 200 pM myeloperoxidase and 120 mM NaCl to 100 nL inhibitor in 100% DMSO in a 384 well, non-binding surface clear bottom plate (Corning #3655). Enzyme, inhibitor, and chloride were preincubated for ten minutes at rt.
After the ten minute preincubation, 25 μL of an APF mixture containing […], 120 mM NaCl and 10 μM H2O2 was added to the plate using the internal dispensing system of a Hammatsu FDSS 6000. Kinetic determinations were carried out immediately on the FDSS 6000 (3 minute kinetic read, 1 read every second, ex: 485 nm, em: 535 nm). IC50 values for inhibitors were calculated by taking the slope of the linear portion of the kinetic measurement (20 seconds to ˜80-120 secs). […]
[formula] where A=minimal Y value (activity level of inhibited sample), B=maximal Y value (activity level of uninhibited sample), C=Log IC50, D=Hill Slope, x=concentration of inhibitor.

T1 sequence (P05164 49-745): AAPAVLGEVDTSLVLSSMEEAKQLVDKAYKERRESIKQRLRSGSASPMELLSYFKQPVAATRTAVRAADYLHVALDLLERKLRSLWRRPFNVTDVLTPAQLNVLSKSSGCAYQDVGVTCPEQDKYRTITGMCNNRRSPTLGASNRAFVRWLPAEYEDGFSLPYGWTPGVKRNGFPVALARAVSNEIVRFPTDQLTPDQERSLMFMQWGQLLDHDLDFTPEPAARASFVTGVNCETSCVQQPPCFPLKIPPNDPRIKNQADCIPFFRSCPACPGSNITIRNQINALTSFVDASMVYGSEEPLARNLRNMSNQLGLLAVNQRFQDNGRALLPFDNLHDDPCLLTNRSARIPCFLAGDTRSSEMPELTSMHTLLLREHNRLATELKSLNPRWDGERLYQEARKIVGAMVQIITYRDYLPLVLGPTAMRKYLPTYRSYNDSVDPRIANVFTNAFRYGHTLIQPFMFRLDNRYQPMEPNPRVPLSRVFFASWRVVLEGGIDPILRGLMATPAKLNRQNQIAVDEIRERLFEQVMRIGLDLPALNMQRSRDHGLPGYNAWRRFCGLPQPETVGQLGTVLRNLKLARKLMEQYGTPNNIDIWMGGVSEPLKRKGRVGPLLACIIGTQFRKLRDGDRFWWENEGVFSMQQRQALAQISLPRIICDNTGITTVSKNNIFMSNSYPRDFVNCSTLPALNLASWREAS

SMILES	IC50 (myeloperoxidase [1]) [nM]	IC50 (myeloperoxidase [2]) [nM]
Nc1cc(C(CCN[C@H]2CC[C@H](c3ccccc3)CC2)c2cnn(C3CCC(F)(F)C3)c2)c2nn[nH]c2n1 (relative stereo) [Example 27, 7-{1-[1-(3,3-Difluorocyclopentyl)-1H-pyrazol-4-yl]-3-{[trans-4-phenylcyclohexyl]amino}propyl}-3H-[1,2,3]triazolo[4,5-b]pyridin-5-amine]	101 to 999	1 to 100
Nc1cc(C(CCCc2ccccc2)c2cnn(Cc3ccc4c(c3)CCNC4)c2)c2nn[nH]c2n1 (centres unmarked) [Example 1, 7-(4-phenyl-1-(1-((1,2,3,4-tetrahydroisoquinolin-6-yl)methyl)-1H-pyrazol-4-yl)butyl)-3H-[1,2,3]triazolo[4,5-b]pyridin-5-amine]	1000 to 10000	1 to 100
CCCC(c1cnn(Cc2ccc3c(c2)CCNC3)c1)c1cc(N)nc2[nH]nnc12 (centres unmarked) [Example 2, 7-{1-[1-(1,2,3,4-tetrahydroisoquinolin-6-ylmethyl)-1H-pyrazol-4-yl]butyl}-3H-[1,2,3]triazolo[4,5-b]pyridin-5-amine]	101 to 999	101 to 999
CC(c1cnn(Cc2ccc3c(c2)CCNC3)c1)c1cc(N)nc2[nH]nnc12 (centres unmarked) [Example 3, 7-{1-[1-(1,2,3,4-tetrahydroisoquinolin-6-ylmethyl)-1H-pyrazol-4-yl]ethyl}-3H-[1,2,3]triazolo[4,5-b]pyridin-5-amine]	101 to 999	101 to 999
Nc1cc(C(CCOCc2ccccc2)c2cnn(Cc3ccc4c(c3)CCNC4)c2)c2nn[nH]c2n1 (centres unmarked) [Example 4, 7-(3-(benzyloxy)-1-(1-((1,2,3,4-tetrahydroisoquinolin-6-yl)methyl)-1H-pyrazol-4-yl)propyl)-3H-[1,2,3]triazolo[4,5-b]pyridin-5-amine]	1000 to 10000	101 to 999
Nc1cc(C(CCC(c2ccccc2)c2ccccc2)c2cnn(Cc3ccc4c(c3)CCNC4)c2)c2nn[nH]c2n1 (centres unmarked) [Example 5, 7-{4,4-diphenyl-1-[1-(1,2,3,4-tetrahydroisoquinolin-6-ylmethyl)-1H-pyrazol-4-yl]butyl}-3H-[1,2,3]triazolo[4,5-b]pyridin-5-amine]	1000 to 10000	1 to 100
Nc1cc(C(CCCC2CCCCC2)c2cnn(Cc3ccc4c(c3)CCNC4)c2)c2nn[nH]c2n1 (centres unmarked) [Example 6, 7-{4-cyclohexyl-1-[1-(1,2,3,4-tetrahydroisoquinolin-6-ylmethyl)-1H-pyrazol-4-yl]butyl}-3H-[1,2,3]triazolo[4,5-b]pyridin-5-amine]	101 to 999	1 to 100
Nc1cc(C(CCCc2ccc3ccccc3c2)c2cnn(Cc3ccc4c(c3)CCNC4)c2)c2nn[nH]c2n1 (centres unmarked) [Example 7, 7-[4-(naphthalen-2-yl)-1-[1-(1,2,3,4-tetrahydroisoquinolin-6-ylmethyl)-1H-pyrazol-4-yl]butyl]-3H-[1,2,3]triazolo[4,5-b]pyridin-5-amine]	101 to 999	1 to 100
Nc1cc(C(CCCC2CCc3ccccc32)c2cnn(Cc3ccc4c(c3)CCNC4)c2)c2nn[nH]c2n1 (centres unmarked) [Example 8, 7-[4-(2,3-dihydro-1H-inden-1-yl)-1-[1-(1,2,3,4-tetrahydroisoquinolin-6-ylmethyl)-1H-pyrazol-4-yl]butyl]-3H-[1,2,3]triazolo[4,5-b]pyridin-5-amine]	1000 to 10000	101 to 999
Nc1cc(C(CCCc2cccc3ccccc23)c2cnn(Cc3ccc4c(c3)CCNC4)c2)c2nn[nH]c2n1 (centres unmarked) [Example 9, 7-[4-(Naphthalen-1-yl)-1-[1-(1,2,3,4-tetrahydroisoquinolin-6-ylmethyl)-1H-pyrazol-4-yl]butyl]-3H-[1,2,3]triazolo[4,5-b]pyridin-5-amine]	1000 to 10000	1 to 100
Nc1cc(C(CCC2CCOCC2)c2cnn(Cc3ccc4c(c3)CCNC4)c2)c2nn[nH]c2n1 (centres unmarked) [Example 10, 7-[3-(Oxan-4-yl)-1-[1-(1,2,3,4-tetrahydroisoquinolin-6-ylmethyl)-1H-pyrazol-4-yl]propyl]-3H-[1,2,3]triazolo[4,5-b]pyridin-5-amine]	101 to 999	1000 to 10000
Nc1cc(C(CCOc2ccccc2)c2cnn(Cc3ccc4c(c3)CCNC4)c2)c2nn[nH]c2n1 (centres unmarked) [Example 11, 7-{3-Phenoxy-1-[1-(1,2,3,4-tetrahydroisoquinolin-6-ylmethyl)-1H-pyrazol-4-yl]propyl}-3H-[1,2,3]triazolo[4,5-b]pyridin-5-amine]	101 to 999	101 to 999
Nc1cc(C(CCCc2ccccc2)c2cnn(Cc3cccnc3)c2)c2nn[nH]c2n1 (centres unmarked) [Example 12, 7-{4-Phenyl-1-[1-(pyridin-3-ylmethyl)-1H-pyrazol-4-yl]butyl}-3H-[1,2,3]triazolo[4,5-b]pyridin-5-amine]	101 to 999	–
Nc1cc(C(CCCc2ccccc2)c2cnn(Cc3cccc(C4CCNCC4)c3)c2)c2nn[nH]c2n1 (centres unmarked) [Example 13, 7-[4-Phenyl-1-(1-{[3-(piperidin-4-yl)phenyl]methyl}-1H-pyrazol-4-yl)butyl]-3H-[1,2,3]triazolo[4,5-b]pyridin-5-amine]	101 to 999	1 to 100
Nc1cc(C(CCCC2NCCc3ccccc32)c2cnn(Cc3ccccc3)c2)c2nn[nH]c2n1 (centres unmarked) [Example 14, 7-[1-(1-Benzyl-1H-pyrazol-4-yl)-4-(1,2,3,4-tetrahydroisoquinolin-1-yl)butyl]-3H-[1,2,3]triazolo[4,5-b]pyridin-5-amine]	101 to 999	1 to 100
Cn1cc(C(CCNCc2ccccc2)c2cc(N)nc3[nH]nnc23)cn1 (centres unmarked) [Example 15, 7-[3-(Benzylamino)-1-(1-methyl-1H-pyrazol-4-yl)propyl]-3H-[1,2,3]triazolo[4,5-b]pyridin-5-amine]	101 to 999	1000 to 10000
Nc1cc(C(CCNC2CCC(c3ccccc3)CC2)c2cnn(Cc3ccccc3)c2)c2nn[nH]c2n1 (centres unmarked) [Example 16, 7-[1-(1-Benzyl-1H-pyrazol-4-yl)-3-[(4-phenylcyclohexyl)amino]propyl]-3H-[1,2,3]triazolo[4,5-b]pyridin-5-amine]	101 to 999	1 to 100
Nc1cc(C(CCNC2CCc3ccccc32)c2cnn(Cc3ccccc3)c2)c2nn[nH]c2n1 (centres unmarked) [Example 17, 7-[1-(1-Benzyl-1H-pyrazol-4-yl)-3-[(2,3-dihydro-1H-inden-1-yl)amino]propyl]-3H-[1,2,3]triazolo[4,5-b]pyridin-5-amine]	101 to 999	1 to 100
Nc1cc(C(CCN[C@H]2CC[C@H](c3ccccc3)CC2)c2cnn(Cc3ccccc3)c2)c2nn[nH]c2n1 (some centres unmarked) [Example 18, 7-[1-(1-Benzyl-1H-pyrazol-4-yl)-3-{[(1r,4r)-4-phenylcyclohexyl]-amino}propyl]-3H-[1,2,3]triazolo 4,5-b pyridin-5-amine]	1 to 100	1 to 100
Nc1cc(C(CCN[C@H]2CC[C@H](c3ccccc3)CC2)c2cnn(Cc3ccc(Cl)cc3)c2)c2nn[nH]c2n1 (stereo partly drawn) [Example 19, 7-(1-{1-[(4-Chlorophenyl)methyl]-1H-pyrazol-4-yl}-3-{[trans-4-phenylcyclohexyl]amino}propyl)-3H-[1,2,3]triazolo[4,5-b]pyridin-5-amine]	101 to 999	1 to 100
Nc1cc(C(CCN[C@H]2CC[C@H](c3ccccc3)CC2)c2cnn(C3CCC3)c2)c2nn[nH]c2n1 (some centres unmarked) [Example 20, 7-[1-(1-Cyclobutyl-1H-pyrazol-4-yl)-3-{[(1r,4r)-4-phenylcyclohexyl]amino}propyl]-3H-[1,2,3]triazolo[4,5-b]pyridin-5-amine]	101 to 999	1 to 100
Nc1cc(C(CCN[C@H]2CC[C@H](c3ccccc3)CC2)c2cnn(CC3CCC3)c2)c2nn[nH]c2n1 (some centres unmarked) [Example 21, 7-{1-[1-(Cyclobutylmethyl)-1H-pyrazol-4-yl]-3-{[(1 r,4r)-4-phenylcyclohexyl]amino}propyl}-3H-[1,2,3]triazolo[4,5-b]pyridin-5-amine]	101 to 999	101 to 999
Nc1cc(C(CCN[C@H]2CC[C@H](c3ccccc3)CC2)c2cn[nH]c2)c2nn[nH]c2n1 (stereo partly drawn) [Example 22, 7-[1-(1H-Pyrazol-4-yl)-3-{[trans-4-phenylcyclohexyl]amino}propyl]-3H-[1,2,3]triazolo[4,5-b]pyridin-5-amine]	1000 to 10000	101 to 999
Nc1cc(C(CCN[C@H]2CC[C@H](c3ccccc3)CC2)c2cnn(C3CCCC3)c2)c2nn[nH]c2n1 (stereo partly drawn) [Example 23, 7-[1-(1-Cyclopentyl-1H-pyrazol-4-yl)-3-{[trans-4-phenylcyclohexyl]amino}propyl]-3H-[1,2,3]triazolo[4,5-b]pyridin-5-amine]	1000 to 10000	1 to 100
